The text below walks through data of US8680129B2, “Compounds, composition, methods, targets for cancer therapy” (priority 2008, dated 2014).

Assay [1] has as its system HT1080 cells. The experiment in a line: DNA transfection, IKK inhibitor III and WST-1 combination, cell viability by CCK8. The assay is classed as cell-based, human. The procedure: Methods: HT1080 cells were cultured in 96 well plates and transfected with one of the pUC19, pcDNA3, IKK1-KA, IKK1-KA+PUC19, or pcDNA3+pUC19 DNA vectors for 24 hours followed with treatment of IKK Inhibitor IIII at 3-30 μM for another 24 hours and, then, treated with 10% WST-1 for 4 hours and cultured overnight before detection. The same treatments of cells were measured at 24, 48 and 96 hours after WST-1 treatment. Cell viability was measured by Cell Count Kit 8 (CCK8).
On the technique in general: Formazan colour is commonly taken as a measure of viable cells.

Assay [2] relates to ROS generation in UM-SCC6 cells. The experiment in a line: Dose response of ROS generation (CM-H2-DCFDA fluorescence). The assay is classed as cell-based, human. As for the experimental part: Method: UM-SCC6 cells were labeled with 10 μM CM-H2-DCFDA for 15 minutes and then treated with WST-1r or CCK8 at the indicated amounts in combination with variable doses of apigenin (A) or IKK Inhibitor III (B) for 4 hours. Fluorescence at Ex485/Em535 were measured for detecting ROS generation that labeled by the CM-H2-DCFDA.

In assay [3] the test system is HT1080 cells. The experiment in a line: siRNA or Puc19 transfection, IKK inhibitor III and WST-1r triple combination, CCK8. The assay is classed as cell-based, human. Particulars: IKK inhibitor 24 hours, then WST-1r 4 hour. The procedure:
Method: HT1080 cells were transfected with siRNA#3, or the siRNA targeting MAGI3, and TMEM182 that were derived from Puc19 DNA sequence and the siRNAs that targeting the corresponding genes that are the targets of the Puc19 derived siRNAs for 24 hours, then, treated with IKK inhibitor III for 24 hours followed by adding WST-1r for another 4 hour. After the 4 hours WST-1r treatment, cells in culture were changed to normal growth medium for 24 hours. Cell viability were monitored by CCK8 Kit every 24 hours. Data were normalized to % of untreated control cells. AllStar siRNA was used as negative siRNA trasnfection control. Puc19 DNA vector transfection was used as positive control.
Data label: Untreated control: 0 Ctrl, WST-1r only: 10 Ctrl, pUC19 transfected cells: 0 p9, pUC19 transfected and WST-1r treated: 10 p9, AllStar negative contrl siRNA transfected: 0 AllStar, AllStar transfected and WST-1r treated: 10 AllStar, siRNA#3 transfected: 0 siRNA#3, siRNA#3 transfcted and WST-1r treated: 10 siRNA#3, siRNAMAGI3 transfected: 0 MAGI3, siRNA MAGI3 transfcted and WST-1r treated: 10 MAGI3, siRNATMEM182 transfected: 0 TMEM182, siRNATMEM182 transfcted and WST-1r treated: 10 TMEM182,

The subject of assay [4] is SK-Mel-5 human melanoma cells. Put plainly: WST-1r then IKK inhibitor III, cell viability by CCK8. The format is cell-based. Conditions: WST-1r 1% and 3% 4 hours, then BMS345541 3 and 10 μM 24 hours; combination 3% WST-1r and 10 μM BMS345541. As for the experimental part: (§1) Method: SK-Mel-5 and T294 human melanoma cells were treated with WST-1r at 1% and 3% final concentration respectively as indicated for 4 hours, then, removed WST-1r by changing to normal growth medium and added IKK inhibitor III for another 24 hours. After 24 hours treatment with 3 μM and 10 μM IKK inhibitor III respectively as indicated, cells were changed to grow in normal growth medium for 48 hours before measuring cell viability by CCK8 Kit.

In assay [5] the test system is T294 human melanoma cells. Described as above. The format is cell-based. Particulars: WST-1r 1% and 3% 4 hours, then BMS345541 3 and 10 μM 24 hours; combination 3% WST-1r and 10 μM BMS345541. As for the experimental part:
as §1

Assay [6] has as its system ROS generation in HT1080 cells. Put plainly: ROS labeling with CM-H2-DCFDA (imaging). The assay is classed as cell-based, human. Particulars: cells transfected with pUC19, no exposure to WST-1. As for the experimental part:
Methods: HT1080 cells were cultured in cover slices and transfected with pUC19 and treated with IKK inhibitor III in sequential. Following these treatment, the cells, thus, treated, were either labeled with CM-H2-DCFDA, a fluorescence dye that can labeling ROS in cells, and, then, treated with WST-1 for 30 minutes (FIG. 23A) or treated with WST-1 for 2 hours and then labeled with CM-H2-DCFDA (FIG. 23-B). The results were recorded by a digital camera with Spotlight software. Manuel exposure levels were used to maintain the same exposure level for comparison.

Turning to `Cc1ccc2nc(NCCN)c3ncc(C)n3c2c1` [IKK inhibitor III], the “cell death by morphology examination” value in assay [1] (30 μM, 24 hours after the WST-1 treatment) is recorded as “majority of the 30 μM IIKK inhibitor III treated cells died”. Besides, the “induction of cell death” value in assay [1] (cells transfected with any of the DNA vectors, IKK inhibitor III 3-30 μM, 24, 48 and 96 hour after WST-1 treatment, vs non transfected control) is “significant IKK inhibitor III dose dependent induction of cell death”. Besides, the ROS levels entry in assay [2] (5 μM IKK Inhibitor, alone and with WST-1r) is given as “increased ROS levels”; in assay [2] (10 μM IKK Inhibitor III, alone and with WST-1r), “decreased it”; in assay [2] (IKK Inhibitor III combined with CCK8) it was “no combined effect with CCK8 on ROS levels”. The cell death result in assay [3] is listed as “dose dependent cell death”; in assay [4] it was “dose dependent increase of cell deaths”; in assay [5], “dose dependent increase of cell deaths”. Further, in assay [6], the “labeled ROS” value is recorded as “IKK inhibitor III dose dependent labeled ROS”.
